Columns and labels:
Nanog in hESCs = assay: Western blot of pluripotent stem cell marker Nanog, hESCs; assay type: cell-based, human; conditions: 2.5 μM, 12 hours
Protocol: RIPA buffer was used to harvest cell lysates (RIPA buffer: NaCl 150 mM, Tris pH 8.0 50 mM, EDTApH 8.0 5 mM, NP-40 1.0%, SDS 0.5%, sodium deoxycholate 0.1%). Western blot analyses were performed as previously described with different types of primary antibodies^29. The primary antibody includes anti-β-actin (A5441; Sigma), anti-Oct4 (sc-9081; Santa Cruz Biotechnology, Santa Cruz, CA, USA), anti-Nanog (3580; Cell Signaling Technology, Danvers, MA, USA), apoptosis antibody kit (9915; Cell Signaling Technology), ATP1A1 (3010; Cell Signaling Technology), and ATP1A2 (16836-1-AP; Proteintech™) were used. After reaction at 4° C. overnight, the blots were incubated with goat anti-mouse- or goat anti-rabbit antibody conjugated with horseradish peroxidase (Jackson ImmunoResearch Inc). The chemiluminescent substrate (WBKLS0500; Millipore, Darmstadt, Germany) was used to detect the blots. Fujifilm LAS-4000 (FUJIFILM, Tokyo, Japan) was used to take the images.

hESCs = assay: PI/Annexin V flow cytometry cell death assay, hESCs; assay type: cell-based, human; conditions: 24 hours; FIG. 2A: 1.25 μM digoxin, 2.5 μM lanatoside C
Protocol: For cell death assay, Propidium iodine/Annexin V assay was performed according to the manufacturer's instruction (Alexa Fluor® 488 Annexin V/Dead Cell Apoptosis Kit; Life Technologies). In brief, live cells were dissociated with trypsin and incubated with Annexin V antibody and PI working solution for 15 minutes. We added 400 μl 1× annexin binding buffer and analyzed the stained cells by FACSCanto™ (Becton Dickinson, Franklin Lakes, NJ, USA). For analyzing the phenotypic signature of MSCs we used a Stemflow™ hMSC analysis kit (BD Biosciences) and FACSCanto™. All flow data was analyzed by FACSDivam software (BD Biosciences) and FlowJo™ (FlowJo, LLC, Ashland, USA).

hESCs teratoma formation = assay: In vivo tumorigenicity assay (teratoma formation of treated hESCs); conditions: hESCs treated 24 hours before subcutaneous injection into NSG mice; 8 weeks; vs DMSO
Protocol: Approximately 10^6 treated cells were mixed with 10^5 MEFs to promote teratoma formation in 50 μl PBS^32. The cells mixture and 1× Matrigel Matrix was mixed well and the cells were subcutaneously injected into NOD scid gamma mice (NSG mice) for 8 weeks. After 8 weeks, animals were sacrificed and teratoma was removed, fixed in 10% formalin, embedded in paraffin and stained with hematoxylin and eosin. H&E stain protocol was modified from previous study^33. For immunohistochemistry, teratoma sections were blocked using 5% milk for 1 hour, and stained with primary antibody at 4° C. overnight, follow by secondary antibody (Dako, Santa Clara, CA, USA) for 1 hour at RT and DAB enhancer (Dako). Primary antibody: anti-human alpha-1-fetoprotein (A0008, Dako) for endoderm lineage; anti-human smooth muscle actin, clone 1A4 (M0851, Dako) for mesoderm lineage; anti-Tuj1 (MAB1637, EMD Millipore, Darmstadt, Germany) for ectoderm.

[1] = test system: mixture of hESCs and GFP-overexpressing hBMMSCs; assay: Kidney capsule transplantation of treated hESCs and hBMMSCs; assay type: in vivo; conditions: drug-treated hESCs and hBMMSCs under the kidney capsule, NSG mice, five weeks
Protocol: The 293T cells were seeded with 10^6 cells in 6-well plates for the generation of the lentivirus. After 24 hours, the 293T cells were transfected with 1 μg of pLKO_AS3w.eGFP.bsd, 0.9 μg of pCMVR8.91, and 0.1 μg of pMD.G (National RNAi Core Facility, Taipei, Taiwan) via the TurboFect transfection reagent (Thermo Fisher Scientific). At 24 hours after the transfection, the medium was refreshed with the virus harvest medium, which contained HG-DMEM, 10% FBS and 1% BSA. The hBMMSCs were seeded in 6-well plates and later incubated with the lentivirus (multiplicity of infection=10) for one day. The cells were selected with 10 μg/ml blasticidin (Thermo Fisher Scientific) the following day. The GFP overexpressing hBMMSCs were then isolated using a cell sorter (FACS Aria™ II, BD Biosciences) and cultured in a medium containing 10 μg/ml blasticidin for the following experiments.
Mixtures of approximately 8×10^5 hESCs and 8×10^5 hBMMSCs were injected under the kidney capsules into 6-week-old male NSG mice. Five weeks after the transplantation, the animals were sacrificed, and the tissues were removed, fixed in 10% formalin, embedded in paraffin, stained with H&E or were subjected to IHC staining. The staining protocols were described in the materials and method section. Chicken anti-GFP (ab 13970, Abcam, Cambridge, MA, USA) antibody was used for the GFP overexpressing hBMMSCs IHC staining.

Compound | protein levels of Nanog in hESCs (Nanog in hESCs) | cell death (PI/Annexin V) in hESCs (hESCs) [%] | tumor (teratoma) weight (hESCs teratoma formation) | tumor area of kidney tissue [1]
CC(=O)O[C@H]1C[C@H](O[C@H]2[C@@H](O)C[C@H](O[C@H]3[C@@H](O)C[C@H](O[C@H]4CC[C@@]5(C)[C@H](CC[C@@H]6[C@@H]5C[C@@H](O)[C@]5(C)[C@@H](C7=CC(=O)OC7)CC[C@]65O)C4)O[C@@H]3C)O[C@@H]2C)O[C@H](C)[C@H]1O[C@@H]1O[C@H](CO)[C@@H](O)[C@H](O)[C@H]1O [Lanatoside C, lanatoside C] | downregulated | 82 | significantly decreased | significantly inhibited
C[C@H]1O[C@@H](O[C@H]2[C@@H](O)C[C@H](O[C@H]3[C@@H](O)C[C@H](O[C@H]4CC[C@@]5(C)[C@H](CC[C@@H]6[C@@H]5C[C@@H](O)[C@]5(C)[C@@H](C7=CC(=O)OC7)CC[C@]65O)C4)O[C@@H]3C)O[C@@H]2C)C[C@H](O)[C@@H]1O [Digoxin, digoxin] | downregulated | 70 | significantly decreased | significantly inhibited
